Experimental data reported in patent US4994582A, “Novel antibiotic NK130119” (Nippon Kayaku Kabushiki Kaisha, priority 1989, dated 1991).
≈ marks a conversion by molar mass, not a printed value.

Legend:
[1] = system: Altenaria kikuchiana; assay: antifungal spectrum on Czapek Dox solution agar; type: cell-based; conditions: read-out: Minimum inhibitory concentration
Description: (§1) the antifungal spectrum of the compound of the present invention was examined.

[2] = system: Aspergillus niger; assay: antifungal spectrum on Czapek Dox solution agar; type: cell-based; conditions: read-out: Minimum inhibitory concentration
Description: as §1

[3] = system: Aspergillus oryzae; assay: antifungal spectrum on Czapek Dox solution agar; type: cell-based; conditions: read-out: Minimum inhibitory concentration
Description: as §1

[4] = system: Candida albicans; assay: antifungal spectrum on Czapek Dox solution agar; type: cell-based; conditions: read-out: Minimum inhibitory concentration
Description: as §1

[5] = system: Fusarium roseum f. sp.; assay: antifungal spectrum on Czapek Dox solution agar; type: cell-based; conditions: Fusarium sambucinum, read-out: Minimum inhibitory concentration
Description: as §1

[6] = system: Mucor javanicus; assay: antifungal spectrum on Czapek Dox solution agar; type: cell-based; conditions: read-out: Minimum inhibitory concentration
Description: as §1

[7] = system: Mycosphaerella melonis; assay: antifungal spectrum on Czapek Dox solution agar; type: cell-based; conditions: read-out: Minimum inhibitory concentration
Description: as §1

[8] = system: Penicillium chrysogenum; assay: antifungal spectrum on Czapek Dox solution agar; type: cell-based; conditions: read-out: Minimum inhibitory concentration
Description: as §1

[9] = system: Rhizopus hangchao; assay: antifungal spectrum on Czapek Dox solution agar; type: cell-based; conditions: read-out: Minimum inhibitory concentration
Description: as §1

[10] = system: Saccharomyces cerevisiae; assay: antifungal spectrum on Czapek Dox solution agar; type: cell-based; conditions: read-out: Minimum inhibitory concentration
Description: as §1

[11] = system: Sporobolomyces salmonicolor; assay: antifungal spectrum on Czapek Dox solution agar; type: cell-based; conditions: read-out: Minimum inhibitory concentration
Description: as §1

[12] = system: Botrytis cinera; assay: antifungal spectrum on potato sucrose agar medium; type: cell-based; conditions: read-out: Minimum inhibitory concentration
Description: as §1
(*) potato sucrose agar medium was used.

[13] = system: mouse colonic cancer cells (Colon 26); assay: growth-inhibitory effect on mouse colonic cancer cells, dye exclusion method; type: cell-based
Experimental: (§2) The growth-inhibitory effects of the compound of the present invention on mouse colonic cancer cells (Colon 26) and human colonic cancer cells (SW1116) were examined. A 96-well plate was inoculated with mouse colonic cancer cells at a ratio of 1.5×10^3 cells per well, while another 96-well plate was inoculated with human colonic cancer cells at a ratio of 3.0×10^3 per well. These cells were incubated in an incubator at 37° C. under 5% CO2 for 24 hours. Then the compound of the present invention was added thereto at various concentrations. Cells in each well were counted by the dye exclusion method 65 hours and 96 hours after the addition to thereby evaluate the growth-inhibitory effect of the test compound on the mouse colonic cancer cells and that on the human colonic cancer cells.

[14] = system: human colonic cancer cells (SW1116); assay: growth-inhibitory effect on human colonic cancer cells, dye exclusion method; type: cell-based; conditions: SW 1116
Experimental: as §2

[15] = system: mouse pulmonary cancer cells (LL); assay: growth-inhibitory effect on mouse pulmonary cancer cells, dye exclusion method; type: cell-based; conditions: 72 h, three days
Experimental: (§3) the growth-inhibitory effects of the compound of the present invention on mouse pulmonary cancer cells (LL) and human plumonary cancer cells (PC-3) were examined.
(§4) A 96-well plate was inoculated with mouse polmonary cancer cells at a ratio of 8.0×10^2 cells per well, while another 96-well plate was inoculated with human pulmonary cancer cells at a ratio of 2.5×10^3 per well. These cells were incubated in an incubator at 37° C. under 5% CO2 for 24 hours. Then the compound of the present invention was added thereto at various concentrations. Cells in each well were counted by the dye exclusion method three days after the addition to thereby evaluate the growth-inhibitory effect of the test compound on the mouse pulmonary cancer cells (LL) and that on the human pulmonary cancer cells (PC-3).

[16] = system: human pulmonary cancer cells (PC-3); assay: growth-inhibitory effect on human pulmonary cancer cells, dye exclusion method; type: cell-based; conditions: 72 h, three days
Experimental: as §3, §4

[17] = system: vascularization by the Ehrlich asoites tumor cells crude extract; assay: vascularization-inhibitory effect, rabbit corneal assay; type: in vivo; conditions: slow-releasing pellet in cornea
Experimental: The vascularization-inhibitory effect of the compound of the present invention was examined by rabbit corneal assay reported by M. A. Gimbrone et al. (J. National Cancer Inst., 52, 412 (1974)). Namely, the center of the cornea of the eye of a rabbit was incised with a knife at a length of approximately 2 mm to thereby form a pouch. Then a slow-releasing pellet containing 100 μg of a crude extract of Ehrlich asoites tumor cells, which had been preliminarily prepared according to a method proposed by R. Langer et al. (Nature, 263, 797 ([…])), was introduced into the pouch. Further another slow-releasing pellet containing 0.3 to 81 μg of the compound of the present invention was introduced there into so as to contact these pellets with each other.

[18] = system: two-spoted spider mite acarids (a Kelthane-resistant species); assay: insecticidal action, mortality of two-spoted spider mite imagos; type: in vivo; conditions: after 2 days
Experimental: The insecticidal action of the compound of the present invention was examined by the following method.
(1) An imago of two-spoted spider mite acarids (a Kelthane-resistant species) was used as a test vermin, and the mortality rate thereof was assaYed according to an ordinary method (described on page 327 of "NoYaku Seibutsu Kenteiho" edited by Toyoji Hosotsuji).
Specifically, a solution of the compound of the present invention in acetone (0.1%) was added to 0.5 ml of an aqueous sucrose solution (1%) to have a predetermined concentration. Ten two-spoted spider mite acarids were released in a vessel (20-ml beaker), and the vessel was covered with a paraffin film. The agent solution prepared above was put on the paraffin film, and another praffin film was put thereon. The beaker was allowed to stand in a thermostatic chamber (20°±1° C.) for a predetermined period of time, and the life and death of the test vermin were investigated.

[19] = acute toxicity on mice; conditions: mouse, in vivo, ip

## CCC1/C=C/C=C/CC(C)C(O)C(C)(O)C(=O)C(C)C(O)C(C)C(=O)C(C)C(O)C(C)/C=C/C(=O)OC2C(C)C(CC1)OC1(CCC(C)C(CC(C)O)O1)C2CC (stereo not drawn) [NK130119]
[1]
  MIC: 0.78 µg/mL (≈ 0.969 µM)
[2]
  MIC: 1.56 µg/mL (≈ 1.94 µM)
[3]
  MIC: 1.56 µg/mL (≈ 1.94 µM)
[4]
  MIC: > 100 µg/mL
[5]
  MIC: 0.39 µg/mL (≈ 0.484 µM)
[6]
  MIC: > 100 µg/mL
[7]
  MIC: 1.56 µg/mL (≈ 1.94 µM)
[8]
  MIC: 0.78 µg/mL (≈ 0.969 µM)
[9]
  MIC: > 100 µg/mL
[10]
  MIC: > 100 µg/mL
[11]
  MIC: > 100 µg/mL
[12]
  MIC: 6.25 µg/mL (≈ 7.76 µM)
[13]; Mus musculus, Colon 26, 0.0006 μg/ml, read-out: Growth-inhibitory ratio
  inhibition at 0.0006 µg/mL: 2.54%
[13]; Mus musculus, Colon 26, 0.0024 μg/ml, read-out: Growth-inhibitory ratio
  inhibition at 0.0024 µg/mL: 4.17%
[13]; Mus musculus, Colon 26, 0.0098 μg/ml, read-out: Growth-inhibitory ratio
  inhibition at 0.0098 µg/mL: 41%
[13]; Mus musculus, Colon 26, 0.039 μg/ml, read-out: Growth-inhibitory ratio
  inhibition at 0.039 µg/mL: 87.6%
[13]; Mus musculus, Colon 26, 0.156 μg/ml, read-out: Growth-inhibitory ratio
  inhibition at 0.156 µg/mL: 90.3%
[13]; Mus musculus, Colon 26, 0.625 μg/ml, read-out: Growth-inhibitory ratio
  inhibition at 0.625 µg/mL: 88.9%
[13]; Mus musculus, Colon 26, 2.5 μg/ml, read-out: Growth-inhibitory ratio
  inhibition at 2.5 µg/mL: 96%
[13]; Mus musculus, Colon 26, 10 μg/ml, read-out: Growth-inhibitory ratio
  inhibition at 10 µg/mL: 101%
[13]; mouse colonic cancer cells (Colon 26), cells counted 65 hours and 96 hours after addition
  IC50: < 0.025 µg/mL
[14]; Homo sapiens, SW1116, 0.0006 μg/ml, read-out: Growth-inhibitory ratio
  inhibition at 0.0006 µg/mL: 2.29%
[14]; Homo sapiens, SW1116, 0.0024 μg/ml, read-out: Growth-inhibitory ratio
  inhibition at 0.0024 µg/mL: -1.4%
[14]; Homo sapiens, SW1116, 0.0098 μg/ml, read-out: Growth-inhibitory ratio
  inhibition at 0.0098 µg/mL: -0.24%
[14]; Homo sapiens, SW1116, 0.039 μg/ml, read-out: Growth-inhibitory ratio
  inhibition at 0.039 µg/mL: 50.7%
[14]; Homo sapiens, SW1116, 0.156 μg/ml, read-out: Growth-inhibitory ratio
  inhibition at 0.156 µg/mL: 50.3%
[14]; Homo sapiens, SW1116, 0.625 μg/ml, read-out: Growth-inhibitory ratio
  inhibition at 0.625 µg/mL: 47.8%
[14]; Homo sapiens, SW1116, 2.5 μg/ml, read-out: Growth-inhibitory ratio
  inhibition at 2.5 µg/mL: 47.2%
[14]; Homo sapiens, SW1116, 10 μg/ml, read-out: Growth-inhibitory ratio
  inhibition at 10 µg/mL: 80.2%
[14]; human colonic cancer cells (SW1116), cells counted 65 hours and 96 hours after addition
  IC50: 2.8 µg/mL (≈ 3.48 µM)
[15]; mouse pulmonary cancer cells (LL)
  IC50: 0.0085 µg/mL (≈ 0.0106 µM)
[15]; mouse pulmonary cancer cells, 0.0006 μg/ml, read-out: Growth-inhibitory ratio
  inhibition at 0.0006 µg/mL: 21.6%
[15]; mouse pulmonary cancer cells, 0.0024 μg/ml, read-out: Growth-inhibitory ratio
  inhibition at 0.0024 µg/mL: 14.5%
[15]; mouse pulmonary cancer cells, 0.0098 μg/ml, read-out: Growth-inhibitory ratio
  inhibition at 0.0098 µg/mL: 54.4%
[15]; mouse pulmonary cancer cells, 0.039 μg/ml, read-out: Growth-inhibitory ratio
  inhibition at 0.039 µg/mL: 61%
[15]; mouse pulmonary cancer cells, 0.156 μg/ml, read-out: Growth-inhibitory ratio
  inhibition at 0.156 µg/mL: 66.2%
[15]; mouse pulmonary cancer cells, 0.625 μg/ml, read-out: Growth-inhibitory ratio
  inhibition at 0.625 µg/mL: 68.8%
[15]; mouse pulmonary cancer cells, 2.5 μg/ml, read-out: Growth-inhibitory ratio
  inhibition at 2.5 µg/mL: 83.7%
[15]; mouse pulmonary cancer cells, 10 μg/ml, read-out: Growth-inhibitory ratio
  inhibition at 10 µg/mL: 102%
[16]; human pulmonary cancer cells (PC-3)
  IC50: 2 µg/mL (≈ 2.48 µM)
[16]; Homo sapiens, PC-3, 0.0006 μg/ml, read-out: Growth-inhibitory ratio
  inhibition at 0.0006 µg/mL: 0.8%
[16]; Homo sapiens, PC-3, 0.0024 μg/ml, read-out: Growth-inhibitory ratio
  inhibition at 0.0024 µg/mL: 1.4%
[16]; Homo sapiens, PC-3, 0.0098 μg/ml, read-out: Growth-inhibitory ratio
  inhibition at 0.0098 µg/mL: 6.2%
[16]; Homo sapiens, PC-3, 0.039 μg/ml, read-out: Growth-inhibitory ratio
  inhibition at 0.039 µg/mL: 22.6%
[16]; Homo sapiens, PC-3, 0.156 μg/ml, read-out: Growth-inhibitory ratio
  inhibition at 0.156 µg/mL: 21.3%
[16]; Homo sapiens, PC-3, 0.625 μg/ml, read-out: Growth-inhibitory ratio
  inhibition at 0.625 µg/mL: 28%
[16]; Homo sapiens, PC-3, 2.5 μg/ml, read-out: Growth-inhibitory ratio
  inhibition at 2.5 µg/mL: 54.3%
[16]; Homo sapiens, PC-3, 10 μg/ml, read-out: Growth-inhibitory ratio
  inhibition at 10 µg/mL: 91.5%
[17]; 1 μg or above
  retardation of vascularization compared with control group: significantly retarded till the fourth day
[17]; 2.7 ug or above
  retardation of vascularization compared with control group: till the eighth day
[18]; 1 ppm
  Mortality rate, imagos of two-spoted spider mite: 20%
[18]; 10 ppm
  Mortality rate, imagos of two-spoted spider mite: 60%
[18]; 100 ppm
  Mortality rate, imagos of two-spoted spider mite: 100%
[19]
  LD50: 0.05 mg/kg
